Measurements: US12180146B2, “Antihypertensive polyol compound and derivative thereof” (TAO PHARMACEUTICAL (SUZHOU) CO., LTD, priority 2020, dated 2024)

Columns and labels:
[1] = test system: monocrotaline-induced pulmonary hypertension model rats (MCT-PAH); assay: Monocrotaline-induced pulmonary hypertension model rats, oral (gavage) treatment for 21 days; type: in vivo, SD rats
From the text: Monocrotaline (MCT) was subcutaneously injected to establish an animal model of pulmonary hypertension in SD rats. At the same time, compound 1 was given by gavage for treatment. The pulmonary artery hemodynamics and right heart hypertrophy index RVHI of the rates were detected to determine whether the oral administration of compound 1 has effects of improving Monocrotaline induces pulmonary hypertension.
(§1) SD rats (purchased from Shanghai Xipuer-Bikai Experimental Animal Co., Ltd.), male, weighing 180-200 g, were bred in an artificially controlled animal room with each 12 hours of light and darkness at a temperature of 20-25° C. and relative humidity of 50-60%, and allowed ad libitum to food and water. The rats were randomly divided into groups according to the experimental requirements, and kept separately in cages, with 3 to 4 rats per cage. All relevant operations of animal experiments are in compliance with the provisions of “Guidelines for the Management and Use of Laboratory Animals” of China.
During the experiment, SD rats were randomly divided into 4 groups: blank control group, pulmonary hypertension model group, Selexipag (1 mg/kg) treatment group and compound 1 (100 mg/kg) group with 6 rats in each group, and the concentration in brackets represents the administration concentration of the compound, in which Selexipag is a new oral long-acting prostacyclin receptor agonist discovered and synthesized by Japan New Drug Co., Ltd. On the first day of the experiment, normal saline was injected subcutaneously into the back of neck of rats in the blank control group, and monocrotaline (Chengdu Purifa Biotechnology Co., Ltd.) solution was injected in the rats in other groups at a dosage of 60 mg/kg. Both the positive drug, Selexipag and Compound 1 were administered by gavage. Selexipag and […] were dissolved in 0.5% CMC-Na solution. The rats were continuously administered for 21 days with a volume of […]. The rats in the control and model groups were given the corresponding volume of CMC-Na solution by gavage. Specific groupings can be found in Table 7.
After the administration, the pulmonary vascular hemodynamics and RVHI was determined according to the same experiment method as that in Example 1.

[2] = test system: monocrotaline-induced pulmonary hypertension model rats (MCT-PAH); assay: Monocrotaline-induced pulmonary hypertension model rats, aerosol inhalation treatment; type: in vivo, SD rats; conditions: 30 mg/kg, inh, 28 days
Protocol: A pulmonary hypertension animal model of SD rats was established by subcutaneous injection of monocrotaline (MCT). The compound 1 was administered by aerosol inhalation for treatment. The pulmonary artery hemodynamics and right heart hypertrophy index RVHI of rats were tested to determine whether compound 1 administered by aerosol inhalation has effects of improving monocrotaline-induced pulmonary hypertension.
as §1
In the second experiment, the rats were divided into 5 groups, namely the control group, model group, positive control Tyvaso (1.62 μg/kg) group, compound 1 (10 mg/kg) group and compound 1 (30 mg/kg) group. On the first day of the experiment, normal saline was injected subcutaneously into the back of the neck of the rats in the blank control group, and monocrotaline (Chengdu Purifa Biotechnology Co., Ltd.) solution was injected in the other groups at a dosage of 60 mg/kg. Compound 1 and Tyvaso were administered by aerosol inhalation, that is, the compound was firstly dissolved in physiological saline, and then the solution was prepared into an aerosol with a nebulizer to be inhaled into the mouth and nose of rats. The rats in the control group and the model group only inhaled an aerosol made of physiological saline. The rats were continuously administered for 28 days, and the concentration in the parentheses of the group name represents the administered concentration of the compound. Specific groupings can be found in Table 9. After the administration, the pulmonary vascular hemodynamics and RVHI were determined in the same way as the experiment method in Example 1.

[3] = test system: spontaneously hypertensive rats (SHR); assay: Antihypertensive activity test: blood pressure and heart rate of spontaneously hypertensive rats (SHR); type: in vivo, rat; conditions: 200 mg/kg; for SHR blood pressure (SBP), time after administration 1 h / SHR blood pressure (SBP), time after administration 2 h / SHR blood pressure (SBP), time after administration 3 h / SHR blood pressure (SBP), time after administration 4 h / SHR blood pressure (SBP), time after administration 5 h / SHR blood pressure (SBP), time after administration 6 h: n = 8
How it was run: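 Spontaneously hypertensive rats received compound at 200 mg/kg. SBP and heart rate were measured before and after dosing. A drop in SBP of ≥20 mmHg from baseline counted as effective, and heart-rate changes were tested by paired t-test (P<0.05).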

[4] = test system: hypoxic pulmonary hypertension model rats; assay: Hypoxic pulmonary hypertension model rats, oral (gavage) treatment for 28 days; type: in vivo, SD rats; conditions: hypoxic PAH rats, 200 mg/kg, po
Protocol: An animal model of pulmonary hypertension in SD rats was established in a hypoxic and low-pressure environment, and compound 1 was administered by gavage at the same time for treatment. The rat pulmonary artery hemodynamics and right heart hypertrophy index RVHI were measured to determine whether compound 1 has effects of improving hypoxic pulmonary hypertension.
as §1
The hypoxic PAH model was established by placing SD male rats in a fully-automatically regulated low-pressure hypoxic chamber (atmospheric pressure of about 50 kPa, oxygen concentration of 10%) for 8 hours a day for 28 days. The rats in the blank control group were kept in a normoxic environment.
The experimental rats of hypoxic PAH model were divided into 8 groups, namely blank control group, model group, Sidenafil (25 mg/kg) group, compound 1 (10 mg/kg) group, compound 1 (25 mg/kg) group, compound 1 (50 mg/kg) group, compound 1 (100 mg/kg) group, and compound 1 (200 mg/kg) group. The concentration in the parentheses of the group name represents the administration concentration of the compound or drug. In hypoxia-induced PAH experiments, Sidenafil is often used as a positive drug, which can reduce the pulmonary artery pressure in rats and reduce the right ventricular hypertrophy and vascular remodeling. In this experiment, 25 mg/kg of Sidenafil was used as the positive drug. Both the positive drugs Sidenafil and Compound 1 were dissolved in physiological saline and formulated into solutions of different concentrations according to different administration concentrations. The rats were continuously administered for 28 days with an administration volume of 5 ml/kg. Rats in the control and model groups were given the corresponding volume of physiological saline solution via gavage. The specific grouping can be found in Table 5.
After the administration was completed, the POWERLAB biological information acquisition and treatment system was started, and the right cardiac catheter filled with 0.2% heparin sodium (Beijing Solo Technology Co. Ltd.) in normal saline was connected to the pressure transducer and then zero-calibrationed for use. After 20% urethane (Shanghai Yuanye Biotechnology Co., Ltd.) solution was injected into the abdominal cavity of the rats for anesthesia, the right neck hair was shaved and the right jugular vein was isolated and exposed. […] After the typical right ventricular waveform appeared and stabilized for a while, the waveform was recorded, and then the pressure value was read by Powerlab biological information acquisition and processing system (ADInstruments).
After the pressure was measured, the catheter was taken out, and the rat was dissected immediately to take out the heart and lung tissues. The right ventricle (RV) and the left ventricle and interventricular septum (LV+S) were separated and weighed, and the right heart hypertrophy index RVHI=RV/(LV+S) was calculated. The lung lobe tissue from the right lower part of the lung was separated, soaked in 4% paraformaldehyde (Sigma) for about 1 week to prepare a paraffin section with a thickness of 3 μm, and then conducted to hematoxylin-eosin staining (Wuhan Guge Biotechnology Co., Ltd.). […]

| SMILES | 2 × MT/ED [2] | RVHI [2] | RVSP [2] [mmHg] | mPAP [2] [mmHg] | 2 × MT/ED ([1]; 100 mg/kg) | RVHI ([1]; 100 mg/kg) | RVSP ([1]; 100 mg/kg) [mmHg] | mPAP ([1]; 100 mg/kg) [mmHg] | SBP Difference before and after administration, 1 h [3] [mmHg] | SHR blood pressure (SBP), time after administration 1 h [3] [mmHg] | SBP Difference before and after administration, 2 h [3] [mmHg] | SHR blood pressure (SBP), time after administration 2 h [3] [mmHg] | SBP Difference before and after administration, 3 h [3] [mmHg] | SHR blood pressure (SBP), time after administration 3 h [3] [mmHg] | SBP Difference before and after administration, 4 h [3] [mmHg] | SHR blood pressure (SBP), time after administration 4 h [3] [mmHg] | SBP Difference before and after administration, 5 h [3] [mmHg] | SHR blood pressure (SBP), time after administration 5 h [3] [mmHg] | SBP Difference before and after administration, 6 h [3] [mmHg] | SHR blood pressure (SBP), time after administration 6 h [3] [mmHg] | further results |
| --- | --- | --- | --- | --- | --- | --- | --- | --- | --- | --- | --- | --- | --- | --- | --- | --- | --- | --- | --- | --- | --- |
| CC(C)N(CCCCOCC(=O)NS(C)(=O)=O)c1cnc(-c2ccccc2)c(-c2ccccc2)n1 [selexipag, reference compound] | – | – | – | – | – | – | – | – | – | – | – | – | – | – | – | – | – | – | – | – | pulmonary arteriole hypertrophy vs. Model ([1]; 1 mg/kg): significantly reduced; 2 × MT/ED ([1]; 1 mg/kg, twice a day): 0.30 ± 0.086; RVHI ([1]; 1 mg/kg, twice a day): 0.27±0.026; RVSP ([1]; 1 mg/kg, twice a day): 35.67 ± 2.89 mmHg; mPAP ([1]; 1 mg/kg, twice a day): 8.78 ± 1.98 mmHg |
| CCc1cccc(C(COC(C)=O)OC(C)=O)c1 (centres unmarked) [Compound 30] | 0.402 ± 0.034 | 0.273 ± 0.043 | 46.04 ± 3.27 | 16.00 ± 3.44 | 0.31 ± 0.021 | 0.245 ± 0.032 | 44.38 ± 2.89 | 16.21 ± 1.29 | 4 | 189 ± 7.54 | 5 | 188 ± 3.69 | 8 | 185 ± 10.11 | 20 | 183 ± 9.66 | 5 | 188 ± 14.9 | 5 | 188 ± 8.64 | 2 × MT/ED [4]: 0.287 ± 0.025; RVHI [4]: 0.303 ± 0.0632; RVSP [4]: 62.14 ± 3.35 mmHg; mPAP [4]: 16.03 ± 5.35 mmHg |
| CCc1ccccc1C(O)CO (centres unmarked) [Compound 5] | 0.390 ± 0.038 | 0.324 ± 0.053 | 40.18 ± 4.62 | 11.06 ± 2.95 | 0.29 ± 0.054 | 0.35 ± 0.048 | 44.32 ± 2.12 | 15.76 ± 2.71 | 20 | 169 ± 6.32 | 15 | 174 ± 4.56 | 18 | 171 ± 9.34 | 16 | 173 ± 13.66 | 15 | 174 ± 15.9 | 11 | 178 ± 8.48 | 2 × MT/ED [4]: 0.270 ± 0.012; RVHI [4]: 0.271 ± 0.038; RVSP [4]: 60.29 ± 3.87 mmHg; mPAP [4]: 15.76 ± 2.71 mmHg |
| CCc1cccc(C(CO)OC2OC(CO)C(O)C(O)C2O)c1 (centres unmarked) [Compound 16] | 0.357 ± 0.032 | 0.290 ± 0.054 | 41.44 ± 2.03 | 14.76 ± 1.98 | 0.32 ± 0.066 | 0.320 ± 0.031 | 48.89 ± 6.64 | 16.74 ± 3.08 | 9 | 174 ± 10.6 | 11 | 172 ± 10.4 | 10 | 173 ± 9.90 | 15 | 168 ± 6.61 | 11 | 172 ± 7.25 | 9 | 174 ± 12.1 | 2 × MT/ED [4]: 0.289 ± 0.030; RVHI [4]: 0.365 ± 0.031; RVSP [4]: 65.83 ± 3.26 mmHg; mPAP [4]: 18.60 ± 3.60 mmHg |
| OCC(O)c1cccc(F)c1 (centres unmarked) [Compound 7] | 0.375 ± 0.024 | 0.267 ± 0.013 | 44.61 ± 2.96 | 12.45 ± 2.41 | 0.27 ± 0.045 | 0.33 ± 0.058 | 42.31 ± 2.78 | 15.67 ± 2.70 | 16 | 177 ± 9.56 | 21 | 172 ± 7.36 | 22 | 171 ± 4.07 | 20 | 173 ± 6.18 | 18 | 175 ± 5.63 | 13 | 180 ± 7.61 | 2 × MT/ED [4]: 0.291 ± 0.023; RVHI [4]: 0.261 ± 0.037; RVSP [4]: 62.78 ± 3.41 mmHg; mPAP [4]: 16.64 ± 2.08 mmHg |
